From publication PMC7421780 (Future Medicinal Chemistry, 2020) come the findings set out here.

In data set [1] the test system is Mtb H37Rv. As to the kind of experiment: Primary screen: MIC, IC50 and IC90 under aerobic conditions. The format is cell-based. The settings on record: Mycobacterium tuberculosis.
Data set [2] in a line: physchem. The conditions noted are these: aqueous with cosolvent or surfactant or cyclodextrin, kinetic from dmso stock.
Data set [3] concerns intracellular Mtb H37Rv. The data set can be described thus: microbe, parasite or virus in culture. The format is cell-based. The conditions noted are these: Mycobacterium tuberculosis; for IC50: THP-1, read-out: IC50 intracell; for IC90: THP-1, read-out: IC90 intracell.
Data set [4] relates to Mtb H37Rv. The data set can be described thus: Minimal bactericidal concentration. The format is cell-based, Mycobacterium tuberculosis. The settings on record: Mtb H37Rv aerobic.
Data set [5] has as its system NRP Mtb H37Rv. The data set can be described thus: microbe, parasite or virus in culture. In kind it is cell-based. The conditions noted are these: Mycobacterium tuberculosis.
For data set [6], the system named is Mtb H37Rv. The data set can be described thus: Secondary assay: MIC, IC50 and IC90 repeated at lower starting concentrations. The conditions noted are these: Mycobacterium tuberculosis; for MIC: read-out: MIC aerobic condition. In kind it is cell-based.
In data set [7] the test system is Mycobacterium abscessus. The data set can be described thus: MIC, IC50, IC90 against nontuberculous mycobacteria. In kind it is cell-based. The conditions noted are these: for IC50 / IC90 / MIC: Mycobacteroides abscessus.
Data set [8] in a line: in vitro. The conditions noted are these: human.
The test system of data set [9] is Mycobacterium avium. The data set can be described thus: MIC against nontuberculous mycobacteria, Alamar blue. The format is cell-based. The settings on record: Mycobacterium avium.
Data set [10] in a line: Caco-2 cell monolayer permeability assay. The conditions noted are these: human.
For data set [11] the following is noted: Human plasma, equilibrium dialysis.
A short description of data set [12]: in vitro. The conditions noted are these: human. The source holds these as a separate data set.
A short description of data set [13]: In vitro microsomal stability assay. The settings on record: Human, 1 μM.
Data set [14] can be described thus: HepG2 cytotoxicity. The conditions noted are these: human, HepG2 cells. The format is cell-based.

Each structure is given as a SMILES string. Values after ≈ are worked out from the molar mass of the structure shown. Read-outs that look alike come from different tables or passages of the source.

In data set [1], `COc1ccc(C(=O)C[n+]2cn(Cc3cccc(Cn4c[n+](CC(=O)c5ccc(OC)cc5)c5ccccc54)n3)c3ccccc32)cc1` [Compound 6g, 1,1′-(pyridine-2,6-diylbis(methylene))bis(3-(2-(4-methoxyphenyl)-2-oxoethyl)-1H-benzo[d]imidazol-3-ium) bromide] came in with an MIC of 58 µM.
In [1], `COC(=O)C[n+]1ccn(Cc2cccc(Cn3cc[n+](CC(=O)OC)c3)n2)c1` [Compound 4a, 1,1′-(pyridine-2,6-diylbis(methylene))bis(3-(2-methoxy-2-oxoethyl)-1H-imidazol-3-ium) bromide] had an IC50 greater than 200 µM, an IC90 greater than 200 µM and an MIC greater than 200 µM.
Turning to `c1cc(Cn2ccnc2)nc(Cn2ccnc2)c1` [Compound 2a, 2,6-bis((1H-imidazol-1-yl)methyl)pyridine], in [1], the IC50 is greater than 200 µM, the IC90 was greater than 200 µM and the MIC was greater than 200 µM. This molecule came in with a solubility in data set [2] greater than 200 µM.
In data set [1], `NC(=O)C[n+]1ccn(Cc2cccc(Cn3cc[n+](CC(N)=O)c3)n2)c1` [Compound 4b, 1,1′-(pyridine-2,6-diylbis(methylene))bis(3-(2-amino-2-oxoethyl)-1H-imidazol-3-ium) iodide] came in with an IC50 greater than 200 µM, an IC90 greater than 200 µM and an MIC greater than 200 µM.
As for `NNC(=O)c1ccncc1` [Isoniazid, reference compound], in [3], the IC50 amounted to 0.23 µM and the IC90 amounted to 0.29 µM.
`O=C(C[n+]1ccn(Cc2cccc(Cn3cc[n+](CC(=O)c4ccc([N+](=O)[O-])cc4)c3)n2)c1)c1ccc([N+](=O)[O-])cc1.[Br-].[Br-]` [Compound 4f, 1,1′-(pyridine-2,6-diylbis(methylene))bis(3-(2-(4-nitrophenyl)-2-oxoethyl)-1H-imidazol-3-ium) bromide]: in [4], the “mechanism of action (bacteriostatic or bactericidal)” value is listed as “bactericidal”. Moreover, the IC50 is 25 µM in [5] (Low oxygen); 49 µM in data set [5] (Normal oxygen); 45 µM in data set [6]; 89 µM in [7]; greater than 50 µM in [8]; 38 µM in data set [1]. Further, the IC50 in [3] turned out to be 26 µM. The IC90 in data set [5] (Low oxygen) turned out to be 65 µM; in [5] (Normal oxygen), 78 µM; in data set [6], 140 µM; in [7] it was 97 µM; in [1], 71 µM; in data set [3] it was 48 µM. In addition, the MIC in data set [5] (Low oxygen) was 183 µM; in data set [5] (Normal oxygen), 129 µM; in data set [6], 104 µM; in data set [7], 110 µM; in data set [1] it was 58 µM; in data set [9], greater than 200 µM. Besides, in [7], the “activity against M. abscessus (in words)” value was “showed activity”.
In data set [1], `NC(=O)C[n+]1cn(Cc2cccc(Cn3c[n+](CC(N)=O)c4ccccc43)n2)c2ccccc21` [Compound 6b, 1,1′-(pyridine-2,6-diylbis(methylene))bis(3-(2-amino-2-oxoethyl)-1H-benzo[d]imidazol-3-ium) iodide] showed an IC50 of 180 µM, an IC90 greater than 200 µM and an MIC greater than 200 µM.
In data set [1], `O=C(C[n+]1cn(Cc2cccc(Cn3c[n+](CC(=O)c4ccc(Cl)cc4)c4ccccc43)n2)c2ccccc21)c1ccc(Cl)cc1` [Compound 6e, 1,1′-(pyridine-2,6-diylbis(methylene))bis(3-(2-(4-chlorophenyl)-2-oxoethyl)-1H-benzo[d]imidazol-3-ium) bromide] came in with an IC50 of 7.9 µM, an IC90 of 18 µM and an MIC of 17 µM.
On to `Cc1ncc([N+](=O)[O-])n1CCO` [Metronidazole, reference compound], for which, in [5] (Low oxygen), the IC50 came out at 29 µM, the IC90 came out at 110 µM and the MIC came out at 200 µM (≈ 34.2 µg/mL). In addition, in data set [5] (Normal oxygen), the IC50 is greater than 200 µM, the IC90 was greater than 200 µM and the MIC is greater than 200 µM.
In [1], `O=C(C[n+]1ccn(Cc2cccc(Cn3cc[n+](CC(=O)c4ccc(Cl)cc4)c3)n2)c1)c1ccc(Cl)cc1` [Compound 4e, 1,1′-(pyridine-2,6-diylbis(methylene))bis(3-(2-(4-chlorophenyl)-2-oxoethyl)-1H-imidazol-3-ium) bromide] gave a concentration for half-maximal inhibition (IC50) of 34 µM, an IC90 of 63 µM and an MIC of 51 µM.
As to `CO[C@H]1/C=C/O[C@@]2(C)Oc3c(C)c(O)c4c(O)c(c(/C=N/N5CCN(C)CC5)c(O)c4c3C2=O)NC(=O)/C(C)=C\C=C\[C@H](C)[C@H](O)[C@@H](C)[C@@H](O)[C@@H](C)[C@H](OC(C)=O)[C@@H]1C` [Rifampicin, reference compound], the IC50 in [5] (Low oxygen) is 0.0041 µM; in data set [6], 0.004 µM; in data set [7], 2.1 µM. The IC90 in [5] (Low oxygen) is 0.0065 µM; in [6], 0.0077 µM; in [7], 3.1 µM. Further, the MIC was 0.13 µM (≈ 0.107 µg/mL) in data set [5] (Low oxygen); 0.096 µM (≈ 0.079 µg/mL) in [5] (Normal oxygen); 0.0063 µM (≈ 0.00518 µg/mL) in data set [6]; 3.3 µM (≈ 2.72 µg/mL) in data set [7]; greater than 200 µM in [9].
Consider `COC(=O)C[n+]1cn(Cc2cccc(Cn3c[n+](CC(=O)OC)c4ccccc43)n2)c2ccccc21` [Compound 6a, 1,1′-(pyridine-2,6-diylbis(methylene))bis(3-(2-methoxy-2-oxoethyl)-1H-benzo[d]imidazol-3-ium) bromide], for which, in data set [1], the 50% inhibitory concentration (IC50) was greater than 200 µM, the IC90 is greater than 200 µM and the MIC is greater than 200 µM.
For `CC(C)NCC(O)COc1cccc2ccccc12` (stereo not shown) [Propranolol, reference compound], in data set [10] (Caco-2), the Papp B→A stood at 250 nm/s. Besides, in [10] (Caco-2, Mean A→B Papp, Caco-2, apical to basal), the Papp A→B amounted to 127 nm/s. Besides, the “Mean plasma fraction bound” value in [11] was 79.3%. This molecule yielded a recovery in [12] of 93%. The same molecule gave a fraction unbound in data set [12] (plasma) of 0.207.
In data set [1], `O=C(C[n+]1ccn(Cc2cccc(Cn3cc[n+](CC(=O)c4ccccc4)c3)n2)c1)c1ccccc1` [Compound 4c, 1,1′-(pyridine-2,6-diylbis(methylene))bis(3-(2-oxo-2-phenylethyl)-1H-imidazol-3-ium) bromide] showed an IC50 greater than 200 µM, an IC90 greater than 200 µM and an MIC greater than 200 µM.
As for `COc1ccc2c(c1)[C@]13CCCC[C@@H]1[C@H](C2)N(C)CC3` [Dextromethorphan, reference compound], in data set [13], the “NADPH-free CLint” value is less than 12.8 µL/min/mg and the “NADPH-free T1/2” value was greater than 3 h.
In [1], `COc1ccc(C(=O)C[n+]2ccn(Cc3cccc(Cn4cc[n+](CC(=O)c5ccc(OC)cc5)c4)n3)c2)cc1` [Compound 4g, 1,1′-(pyridine-2,6-diylbis(methylene))bis(3-(2-(4-methoxyphenyl)-2-oxoethyl)-1H-imidazol-3-ium) bromide] displayed an IC50 of 160 µM, an IC90 greater than 200 µM and an MIC greater than 200 µM.
`O=[N+]([O-])c1cn(Cc2cccc(Cn3cnc([N+](=O)[O-])c3)n2)cn1` [Compound 2b, 2,6-bis((4-nitro-1H-imidazol-1-yl)methyl)pyridine]: the IC50 in [5] (Low oxygen) is 26 µM; in data set [5] (Normal oxygen) it was greater than 200 µM; in [6] it was 93 µM; in data set [8] it was greater than 50 µM; in data set [1], 77 µM; in [3], greater than 200 µM. Besides, the IC90 was 91 µM in data set [5] (Low oxygen); greater than 200 µM in [5] (Normal oxygen); 100 µM in data set [6]; 100 µM in data set [1]; greater than 200 µM in data set [3]. In addition, the MIC is 200 µM (≈ 65.9 µg/mL) in data set [5] (Low oxygen), greater than 200 µM in [5] (Normal oxygen), 101 µM (≈ 33.3 µg/mL) in data set [6] and 92 µM (≈ 30.3 µg/mL) in data set [1].
In data set [11], `CC(=O)CC(c1ccccc1)c1c(O)c2ccccc2oc1=O` (stereo not shown) [Warfarin] yielded a recovery of 96.7.
Consider `O=C(C[n+]1cn(Cc2cccc(Cn3c[n+](CC(=O)c4ccccc4)c4ccccc43)n2)c2ccccc21)c1ccccc1.[Br-].[Br-]` [Compound 6c, 1,1′-(pyridine-2,6-diylbis(methylene))bis(3-(2-oxo-2-phenylethyl)-1H-benzo[d]imidazol-3-ium) bromide], for which the “mechanism of action (bacteriostatic or bactericidal)” value in data set [4] is listed as “bactericidal”. Besides, the IC50 is 16 µM in data set [5] (Low oxygen); 17 µM in data set [5] (Normal oxygen); 34 µM in data set [6]; 120 µM in [7]; greater than 50 µM in [8]; 25 µM in data set [1]. In addition, the 50% inhibitory concentration (IC50) in data set [3] amounted to 37 µM. Besides, the IC90 in data set [5] (Low oxygen) was 130 µM; in [5] (Normal oxygen) it was 60 µM; in [6] it was 110 µM; in data set [7], 200 µM; in data set [1] it was 60 µM; in [3], greater than 50 µM. Besides, the MIC in data set [5] (Low oxygen) was 200 µM; in data set [5] (Normal oxygen), greater than 200 µM; in data set [6], 87 µM; in [7], greater than 200 µM; in data set [1], 56 µM; in [9], greater than 200 µM. The “activity against M. abscessus (in words)” value in data set [7] was “showed activity”.
Consider `CN[C@@H]1C[C@H]2O[C@@](C)([C@@H]1OC)n1c3ccccc3c3c4c(c5c6ccccc6n2c5c31)C(=O)NC4` [Staurosporine, reference compound], for which the midpoint of inhibition in data set [8], the IC50, lay at 0.018 µM. The same molecule registered an IC50 at 72 h in data set [14] of 0.0086 µM.
